Target: T1, Kinesin-like protein KIF18A (Homo sapiens, UniProt Q8NI77)
T1 sequence (Q8NI77 whole entry): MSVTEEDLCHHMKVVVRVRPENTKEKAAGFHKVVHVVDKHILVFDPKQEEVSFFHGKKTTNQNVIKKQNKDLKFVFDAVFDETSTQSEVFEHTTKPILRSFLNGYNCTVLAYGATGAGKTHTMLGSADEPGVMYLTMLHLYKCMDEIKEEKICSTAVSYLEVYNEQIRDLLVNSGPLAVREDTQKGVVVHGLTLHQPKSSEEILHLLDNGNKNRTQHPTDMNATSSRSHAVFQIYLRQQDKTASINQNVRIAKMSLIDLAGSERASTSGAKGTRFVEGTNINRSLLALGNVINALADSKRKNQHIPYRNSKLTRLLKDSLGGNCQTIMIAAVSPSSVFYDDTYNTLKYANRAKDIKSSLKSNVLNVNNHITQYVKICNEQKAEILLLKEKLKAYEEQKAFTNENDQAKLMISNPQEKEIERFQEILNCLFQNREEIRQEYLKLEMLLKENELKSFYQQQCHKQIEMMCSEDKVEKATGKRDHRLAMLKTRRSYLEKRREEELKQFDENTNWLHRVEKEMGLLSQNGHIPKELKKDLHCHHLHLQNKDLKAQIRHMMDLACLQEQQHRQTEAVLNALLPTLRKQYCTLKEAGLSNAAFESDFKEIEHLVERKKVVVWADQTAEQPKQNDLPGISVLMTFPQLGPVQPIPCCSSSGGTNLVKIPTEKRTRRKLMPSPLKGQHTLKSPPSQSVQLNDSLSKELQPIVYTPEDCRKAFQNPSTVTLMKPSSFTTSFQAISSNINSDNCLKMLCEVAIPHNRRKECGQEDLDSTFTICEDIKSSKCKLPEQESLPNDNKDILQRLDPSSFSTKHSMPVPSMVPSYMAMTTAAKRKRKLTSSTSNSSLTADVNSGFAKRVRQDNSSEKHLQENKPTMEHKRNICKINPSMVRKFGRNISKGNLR
Assay: Inhibition of recombinant His-tagged human KIF18A (1 to 467 residues) expressed in baculovirus expression system assessed as inhibition of microtubule-stimulated ATPase activity preincubated for 15 mins followed by ATP addition and further incubated for 15 mins and measured after 40 mins by ADP-Glo reagent based assay

CC(C)(C)NS(=O)(=O)c1cccc(NC(=O)c2ccc(N3CC[C@@H](O)C3)nc2N2CCC3(CC2)CC3)c1
IC50: 0.189 µM
